Laboratory results published in patent US20130109682A1, “CYCLIC ETHER COMPOUNDS USEFUL AS KINASE INHIBITORS” (NOVARTIS AG, priority 2010, published 2013).

How the values were obtained:
PIM1 = PIM1 (Homo sapiens, UniProt P11309); experiment: KinaseGlo Pim1 ATP depletion assay; type: biochemical
How it was run: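 IC50 is derived from residual ATP measured by KinaseGlo Plus luminescence once about half the ATP was consumed. Final conditions were 20 μM ATP, 40 μM BAD peptide and 2.5 nM kinase in HEPES pH 7.5 buffer with MgCl2, DTT and BSA, plus 2.5% DMSO. Compound and enzyme were premixed 15 min before ATP addition.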

[1] = system: KMS11 (human myeloma cell line); experiment: Cell proliferation assay (CellTiter-Glo), KMS11; type: cell-based; settings: Homo sapiens, KMS-11; KMS11-Luc cells
How it was run: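 EC50 derived from CellTiter-Glo luminescence after 3-day exposure at 37° C. Compound was diluted to 2× in medium and added to an equal volume of cells. KMS11 myeloma cells were plated on assay day at 2000/well in IMDM with 10% FBS and sodium pyruvate.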

GSK3β = GSK3β (Homo sapiens, UniProt P49841); experiment: GSK3β ATP depletion assay; type: biochemical; settings: read-out: GSK3b IC50
How it was run: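 Kinase activity is read as ATP consumption: luciferase luminescence reports the ATP remaining once roughly half of the 2 μM ATP is used. Reaction mix: 5 nM GSK3β, 10 μM b-CREB peptide, 50 mM Tris pH 7.5, 15 mM MgCl2, 1 mM DTT, 0.1% BSA, 2.5% DMSO. Enzyme and peptide are preincubated 15 min before ATP is added.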

PIM3 = PIM3 (Homo sapiens, UniProt Q86V86); experiment: KinaseGlo Pim3 ATP depletion assay; type: biochemical
How it was run: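 Residual ATP was detected by luciferase luminescence once about half had been consumed. The reaction contained 5 nM enzyme, 100 μM BAD peptide (RSRHSSYPAGT) and 40 μM ATP in 50 mM HEPES pH 7.5, 5 mM MgCl2, 1 mM DTT and 0.05% BSA with 2.5% DMSO. Compound and enzyme/peptide were premixed 15 min before ATP.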

PIM2 = PIM2 (Homo sapiens, UniProt Q9P1W9); experiment: KinaseGlo Pim2 ATP depletion assay; type: biochemical
How it was run: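 Compound sat 15 min with enzyme and BAD peptide before ATP was added; final levels 5 nM PIM2, 10 μM peptide, 4 μM ATP, 2.5% DMSO, pH 7.5 HEPES buffer with MgCl2, DTT, BSA. Stopped near 50% ATP consumption; remaining ATP measured by luciferase luminescence.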

Sequence of PIM2 (Q9P1W9 whole entry): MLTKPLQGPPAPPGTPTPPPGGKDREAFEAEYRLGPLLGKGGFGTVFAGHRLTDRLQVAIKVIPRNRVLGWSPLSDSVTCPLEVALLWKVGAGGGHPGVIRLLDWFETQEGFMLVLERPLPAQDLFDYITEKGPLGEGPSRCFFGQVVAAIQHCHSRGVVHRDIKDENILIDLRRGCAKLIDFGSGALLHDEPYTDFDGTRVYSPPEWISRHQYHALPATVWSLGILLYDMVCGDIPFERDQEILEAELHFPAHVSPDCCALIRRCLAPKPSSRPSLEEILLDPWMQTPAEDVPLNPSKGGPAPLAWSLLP
Sequence of PIM1 (P11309 whole entry): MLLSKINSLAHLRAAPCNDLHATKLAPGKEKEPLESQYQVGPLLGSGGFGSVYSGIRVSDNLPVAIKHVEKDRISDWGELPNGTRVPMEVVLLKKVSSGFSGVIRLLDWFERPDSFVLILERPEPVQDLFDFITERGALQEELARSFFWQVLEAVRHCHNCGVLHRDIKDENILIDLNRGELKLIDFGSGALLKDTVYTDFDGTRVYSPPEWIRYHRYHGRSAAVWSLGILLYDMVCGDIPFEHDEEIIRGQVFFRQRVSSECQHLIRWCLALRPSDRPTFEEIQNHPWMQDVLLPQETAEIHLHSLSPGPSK
Sequence of GSK3β (P49841 whole entry, species assumed): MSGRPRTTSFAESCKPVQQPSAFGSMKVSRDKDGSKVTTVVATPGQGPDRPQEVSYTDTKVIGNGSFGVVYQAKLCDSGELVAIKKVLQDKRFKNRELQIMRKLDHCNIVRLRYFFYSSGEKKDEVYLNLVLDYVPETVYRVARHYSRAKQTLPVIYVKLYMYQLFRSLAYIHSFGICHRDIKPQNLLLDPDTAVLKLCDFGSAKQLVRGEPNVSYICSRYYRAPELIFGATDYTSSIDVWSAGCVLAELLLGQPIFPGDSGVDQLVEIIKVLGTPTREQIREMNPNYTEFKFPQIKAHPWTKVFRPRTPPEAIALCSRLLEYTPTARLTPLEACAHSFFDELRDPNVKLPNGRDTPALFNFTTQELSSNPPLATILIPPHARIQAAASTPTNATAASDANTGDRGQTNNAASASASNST

| IC50 (PIM1) [nM] | EC50 [1] [nM] | IC50 (GSK3β) [nM] | IC50 (PIM3) [nM] | IC50 (PIM2) [nM] | SMILES |
| --- | --- | --- | --- | --- | --- |
| 1 | 7200 | 629 | 2 | 11 | C[C@H]1O[C@@H](c2ccncc2NC(=O)c2ccc(F)c(-c3c(F)cccc3F)n2)C[C@@H](O)[C@@H]1O [Example 119, 6-(2,6-difluorophenyl)-N-(4-((2R,4R,5S,6R)-4,5-dihydroxy-6-methyltetrahydro-2H-pyran-2-yl)pyridin-3-yl)-5-fluoropicolinamide] |
| 2 | > 10000 | 798 | 3 | 12 | C[C@@H]1O[C@H](c2ccncc2NC(=O)c2ccc(F)c(-c3c(F)cccc3F)n2)C[C@H](O)[C@H]1O [Example 120, 6-(2,6-difluorophenyl)-N-(4-((2S,4S,5R,6S)-4,5-dihydroxy-6-methyltetrahydro-2H-pyran-2-yl)pyridin-3-yl)-5-fluoropicolinamide] |
| 12 | > 10000 | 228 | 84 | 2350 | O=C(Nc1cnccc1[C@@H]1C[C@H](O)CCO1)c1csc(-c2c(F)cccc2F)n1 [Example 130, 2-(2,6-difluorophenyl)-N-(4-((2S,4R)-4-hydroxytetrahydro-2H-pyran-2-yl)pyridin-3-yl)thiazole-4-carboxamide] |
| 3 | > 10000 | 216 | 22 | 1110 | O=C(Nc1cnccc1[C@H]1C[C@@H](O)CCO1)c1csc(-c2c(F)cccc2F)n1 [Example 131, 2-(2,6-difluorophenyl)-N-(4-((2R,4S)-4-hydroxytetrahydro-2H-pyran-2-yl)pyridin-3-yl)thiazole-4-carboxamide] |
| 6 | > 10000 | 196 | 33 | 465 | O=C(Nc1cnccc1[C@@H]1C[C@H](O)CCO1)c1ccc(F)c(-c2c(F)cccc2F)n1 [Example 132, 6-(2,6-difluorophenyl)-5-fluoro-N-(4-((2S,4R)-4-hydroxytetrahydro-2H-pyran-2-yl)pyridin-3-yl)picolinamide] |
| 3 | > 10000 | 2200 | 10 | 214 | O=C(Nc1cnccc1[C@@H]1CCCCO1)c1ccc(F)c(-c2c(F)cccc2F)n1 [Example 133, (S)-6-(2,6-difluorophenyl)-5-fluoro-N-(4-(tetrahydro-2H-pyran-2-yl)pyridin-3-yl)picolinamide] |
| 10 | > 10000 | 759 | 400 | 678 | O=C(Nc1cnccc1[C@H]1CCCCO1)c1ccc(F)c(-c2c(F)cccc2F)n1 [Example 134, (R)-6-(2,6-difluorophenyl)-5-fluoro-N-(4-(tetrahydro-2H-pyran-2-yl)pyridin-3-yl)picolinamide] |
| 3 | > 10000 | 351 | 5 | 23 | N#CC[C@H]1O[C@@H](c2ccncc2NC(=O)c2ccc(F)c(-c3c(F)cccc3F)n2)C[C@@H](O)[C@@H]1O [Example 137, N-(4-((2R,4R,5S,6R)-6-(cyanomethyl)-4,5-dihydroxytetrahydro-2H-pyran-2-yl)pyridin-3-yl)-6-(2,6-difluorophenyl)-5-fluoropicolinamide] |
| 24 | > 10000 | 235 | 14 | 27 | N#CC[C@H]1O[C@@H](c2ccncc2NC(=O)c2nc(-c3c(F)cccc3F)ncc2N)C[C@@H](O)[C@@H]1O [Example 138, 5-amino-N-(4-((2R,4R,5S,6R)-6-(cyanomethyl)-4,5-dihydroxytetrahydro-2H-pyran-2-yl)pyridin-3-yl)-2-(2,6-difluorophenyl)pyrimidine-4-carboxamide] |
